Laboratory results as given in ChEMBL document CHEMBL5154845, “Dual-acting antitumor agents targeting the A2A adenosine receptor and histone deacetylases: Design and synthesis of 4-(furan-2-yl)-1H-pyrazolo[3,4-d]pyrimidin-6-amine derivatives” (Eur J Med Chem, 2022).

Tests used:
Adenosine receptor A2a = Adenosine receptor A2a (Homo sapiens, UniProt P29274); experiment: Displacement of [3H][…] from human A2AAR incubated for 60 mins by scintillation counter analysis
CT26 = experiment: Antiproliferative activity against mouse CT26 cells after 72 hrs by CCK-8 assay; type: functional
MC-38 = experiment: Antiproliferative activity against mouse MC38 cells after 72 hrs by CCK-8 assay; type: functional
Histone deacetylase 1 = Histone deacetylase 1 (Homo sapiens, UniProt Q13547); experiment: Inhibition of HDAC1 (unknown origin) using trypsin and LGK(Ac)-AMC as substrates incubated for 1 hr and measured by fluorescence assay
[1] = Mean residence time in male ICR mouse at 20 mg/kg, po measured up to 24 hrs by LC-MS/MS analysis; type: ADME, organism-based; conditions: in vivo
[2] = Tmax in male ICR mouse at 20 mg/kg, po measured up to 24 hrs by LC-MS/MS analysis; type: ADME, organism-based; conditions: in vivo
Adenosine receptor A2b = molecular target: T1, Adenosine receptor A2b (Homo sapiens, UniProt P29275); experiment: Displacement of [3H]DPCPX from human A2BAR incubated for 60 mins by scintillation counter analysis
T1 sequence (P29275 whole entry): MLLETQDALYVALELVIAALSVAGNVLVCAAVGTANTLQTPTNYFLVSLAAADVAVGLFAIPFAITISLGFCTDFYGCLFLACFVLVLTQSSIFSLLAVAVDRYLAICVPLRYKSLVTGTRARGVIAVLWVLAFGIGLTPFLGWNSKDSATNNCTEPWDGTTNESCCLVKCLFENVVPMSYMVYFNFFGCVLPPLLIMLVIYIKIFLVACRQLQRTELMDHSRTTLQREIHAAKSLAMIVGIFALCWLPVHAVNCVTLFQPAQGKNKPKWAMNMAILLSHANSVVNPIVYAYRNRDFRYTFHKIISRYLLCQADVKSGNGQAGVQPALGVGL

[3] = Half-life in male ICR mouse at 20 mg/kg, po measured up to 24 hrs by LC-MS/MS analysis; type: ADME, organism-based; conditions: in vivo
Adenosine receptor A3 = molecular target: T2, Adenosine receptor A3 (Homo sapiens, UniProt P0DMS8); experiment: Displacement of [3H]HEMADO from human A3AR incubated for 60 mins by scintillation counter analysis
T2 sequence (P0DMS8 whole entry): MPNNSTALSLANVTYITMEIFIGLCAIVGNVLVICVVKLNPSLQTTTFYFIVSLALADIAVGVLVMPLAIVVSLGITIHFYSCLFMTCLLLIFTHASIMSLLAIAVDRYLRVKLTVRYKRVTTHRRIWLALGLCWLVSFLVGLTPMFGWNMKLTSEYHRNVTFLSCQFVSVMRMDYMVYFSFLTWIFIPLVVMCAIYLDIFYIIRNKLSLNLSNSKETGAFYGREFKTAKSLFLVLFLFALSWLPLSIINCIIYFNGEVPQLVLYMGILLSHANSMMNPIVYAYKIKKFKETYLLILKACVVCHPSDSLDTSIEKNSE

[4] = Cmax in male ICR mouse at 20 mg/kg, po measured up to 24 hrs by LC-MS/MS analysis; type: ADME, organism-based; parameters: time < 24 hrs, dose 20 mg/kg, route po; conditions: in vivo
Adenosine receptor A1 = molecular target: T3, Adenosine receptor A1 (Homo sapiens, UniProt P30542); experiment: Displacement of [3H]DPCPX from human A1AR incubated for 60 mins by scintillation counter analysis
T3 sequence (P30542 whole entry): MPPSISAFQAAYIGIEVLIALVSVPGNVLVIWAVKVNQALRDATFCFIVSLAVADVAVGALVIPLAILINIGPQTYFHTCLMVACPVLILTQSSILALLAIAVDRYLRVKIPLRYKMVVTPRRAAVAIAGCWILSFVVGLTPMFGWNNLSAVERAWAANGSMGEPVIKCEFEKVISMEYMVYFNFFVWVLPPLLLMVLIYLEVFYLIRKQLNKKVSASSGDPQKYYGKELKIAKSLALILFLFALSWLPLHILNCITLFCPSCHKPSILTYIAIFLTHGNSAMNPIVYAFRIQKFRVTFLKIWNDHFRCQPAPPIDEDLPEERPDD

[5] = AUC (0 to t) in male ICR mouse at 20 mg/kg, po measured up to 24 hrs by LC-MS/MS analysis; type: ADME, organism-based; parameters: time < 24 hrs, dose 20 mg/kg, route po; conditions: in vivo
[6] = Elimination rate constant in male ICR mouse at 20 mg/kg, po measured up to 24 hrs by LC-MS/MS analysis; type: ADME, organism-based; conditions: in vivo

Sequence of Adenosine receptor A2a (P29274 whole entry): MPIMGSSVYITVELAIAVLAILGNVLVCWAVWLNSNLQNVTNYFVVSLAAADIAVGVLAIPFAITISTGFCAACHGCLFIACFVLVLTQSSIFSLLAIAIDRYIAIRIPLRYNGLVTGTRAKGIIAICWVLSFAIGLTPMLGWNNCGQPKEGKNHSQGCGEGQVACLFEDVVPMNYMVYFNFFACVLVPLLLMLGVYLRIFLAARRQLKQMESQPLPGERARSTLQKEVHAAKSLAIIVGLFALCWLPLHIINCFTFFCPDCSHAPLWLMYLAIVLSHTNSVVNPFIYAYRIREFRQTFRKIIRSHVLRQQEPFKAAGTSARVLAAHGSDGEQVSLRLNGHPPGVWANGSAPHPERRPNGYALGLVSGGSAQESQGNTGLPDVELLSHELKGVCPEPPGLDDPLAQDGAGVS
Sequence of Histone deacetylase 1 (Q13547 whole entry): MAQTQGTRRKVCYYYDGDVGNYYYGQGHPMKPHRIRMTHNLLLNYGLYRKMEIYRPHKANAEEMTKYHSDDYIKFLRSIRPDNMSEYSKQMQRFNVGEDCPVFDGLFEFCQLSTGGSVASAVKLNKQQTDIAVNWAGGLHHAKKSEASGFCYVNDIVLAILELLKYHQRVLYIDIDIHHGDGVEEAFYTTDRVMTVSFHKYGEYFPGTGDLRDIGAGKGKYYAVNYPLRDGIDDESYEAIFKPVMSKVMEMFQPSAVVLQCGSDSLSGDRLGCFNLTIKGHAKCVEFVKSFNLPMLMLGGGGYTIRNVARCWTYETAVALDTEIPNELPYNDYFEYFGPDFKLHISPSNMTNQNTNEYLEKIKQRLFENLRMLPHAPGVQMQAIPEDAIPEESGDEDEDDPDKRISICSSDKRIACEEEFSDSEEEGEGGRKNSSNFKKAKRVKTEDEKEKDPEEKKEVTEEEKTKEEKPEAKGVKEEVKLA

Structure (SMILES) | Ki (Adenosine receptor A2a) | GI50 (CT26) | GI50 (MC-38) | IC50 (Histone deacetylase 1) | further results
Nc1nc(-c2ccco2)c2cnn(CCCOc3ccc(C(=O)Nc4ccccc4N)cc3)c2n1 | 147 nM | > 30000 nM | > 30000 nM | 190 nM | –
O=C(CCCCCCC(=O)Nc1ccccc1)NO [VORINOSTAT] | – | 2350 nM | 2740 nM | – | –
Cc1ccc(-c2nc(N)nc3c2cnn3Cc2cccc(OCCCCC(=O)NO)c2)o1 | 25.9 nM | – | – | 206 nM | –
Nc1nc(-c2ccco2)c2cnn(Cc3ccc(N)c(OCCCCCCC(=O)NO)c3)c2n1 | 15 nM | 22800 nM | 28200 nM | 37 nM | –
Nc1nc(-c2ccco2)c2cnn(CCCCCC(=O)NO)c2n1 | 777 nM | – | – | 9.3 nM | –
Nc1nc(-c2ccco2)c2cnn(Cc3cccc(/C=C/C(=O)Nc4ccccc4N)c3)c2n1 | 35.8 nM | – | – | 1180 nM | –
Cc1ccc(-c2nc(N)nc3c2cnn3CCCCCC(=O)NO)o1 | 617 nM | – | – | 7.3 nM | –
Nc1nc(-c2ccco2)c2cnn(Cc3cccc(OCCCCC(=O)NO)n3)c2n1 | 50.7 nM | – | – | 420 nM | –
Cc1ccc(-c2nc(N)nc3c2cnn3Cc2cccc(OCCCCCC(=O)NO)n2)o1 | 72.8 nM | – | – | 210 nM | –
Nc1nc(-c2ccco2)c2cnn(CCOc3ccc(C(=O)Nc4ccccc4N)cc3)c2n1 | 974 nM | – | – | 105 nM | –
Nc1nc(-c2ccco2)c2cnn(CCCc3ccc(C(=O)NO)cc3)c2n1 | 863 nM | – | – | 64.5 nM | –
Nc1nc(-c2ccco2)c2cnn(Cc3cccc(OCCCCC(=O)NO)c3)c2n1 | 7.3 nM | – | – | 151 nM | –
Nc1nc(-c2ccco2)c2cnn(CCc3ccc(C(=O)NO)cc3)c2n1 | 436 nM | – | – | 126 nM | –
Nc1nc(-c2ccco2)c2cnn(CCCc3ccc(C(=O)Nc4ccccc4N)cc3)c2n1 | 140 nM | 7560 nM | 6960 nM | 186 nM | –
Nc1nc(-c2ccco2)c2cnn(CCCCCCC(=O)NO)c2n1 | 301 nM | 33000 nM | 350 nM | 2.4 nM | –
Nc1ccccc1NC(=O)c1ccc(CNc2nccc(-c3cccnc3)n2)cc1 [MOCETINOSTAT] | – | 1770 nM | 1640 nM | – | –
Cc1ccc(-c2nc(N)nc3c2cnn3Cc2cccc(OCCCCCC(=O)NO)c2)o1 | 12.3 nM | 18900 nM | 23200 nM | 95 nM | –
Nc1nc(-c2ccco2)c2cnn(Cc3cccc(OCCCCCCC(=O)NO)n3)c2n1 | 14.7 nM | 5800 nM | 5060 nM | 23 nM | MRT [1]: 1.16 h; Tmax [2]: 0.25 h; Ki (Adenosine receptor A2b): 2500 nM; half-life [3]: 1.48 h; Ki (Adenosine receptor A3): > 10000 nM; Cmax [4]: 608 ng/mL; Ki (Adenosine receptor A1): 641 nM; AUC(0-t) at 24 h [5]: 302 ng·h/mL; k el at 24 h [6]: 0.000131 s⁻¹
Nc1nc(-c2ccco2)c2cnn(CCCCC(=O)NO)c2n1 | 1560 nM | – | – | 394 nM | –
Nc1nc(-c2ccco2)c2cnn(Cc3cccc(OCCCCCC(=O)NO)c3)c2n1 | 10.9 nM | 9990 nM | 9820 nM | 86 nM | –
Cc1ccc(-c2nc(N)nc3c2cnn3Cc2cccc(OCCCCCCC(=O)NO)n2)o1 | 159 nM | 7680 nM | 6410 nM | 29.5 nM | –

Structure (SMILES) | Ki (Adenosine receptor A2a) | GI50 (CT26) | GI50 (MC-38) | IC50 (Histone deacetylase 1) | further results
Nc1nc(-c2ccco2)c2cnn(CCCCCCCC(=O)NO)c2n1 | 276 nM | – | – | 9.3 nM | –
Cc1ccc(-c2nc(N)nc3c2cnn3CCCCCCC(=O)NO)o1 | 334 nM | – | – | 2.2 nM | –
Cc1ccc(-c2nc(N)nc3c2cnn3CCc2ccc(C(=O)NO)cc2)o1 | 295 nM | – | – | 73.5 nM | –
Cc1ccc(-c2nc(N)nc3c2cnn3Cc2cccc(/C=C/C(=O)NO)c2)o1 | 378 nM | – | – | 14.5 nM | –
Cc1ccc(-c2nc(N)nc3c2cnn3Cc2ccc(C(=O)Nc3ccccc3N)cc2)o1 | > 10000 nM | – | – | 45 nM | –
Cc1ccc(-c2nc(N)nc3c2cnn3CCCCCCCC(=O)NO)o1 | 585 nM | – | – | 7.2 nM | –
Cc1ccc(-c2nc(N)nc3c2cnn3Cc2cccc(OCCCCCCC(=O)NO)c2)o1 | 52.8 nM | 13200 nM | 11300 nM | 42.5 nM | –
Nc1nc(-c2ccco2)c2cnn(Cc3cccc(/C=C/C(=O)NO)c3)c2n1 | 130 nM | 2320 nM | 1910 nM | 8.4 nM | MRT [1]: 9.54 h; Tmax [2]: 0.25 h; half-life [3]: 7.53 h; Cmax [4]: 122 ng/mL; AUC(0-t) at 24 h [5]: 182 ng·h/mL; k el at 24 h [6]: 2.69e-05 s⁻¹
Cc1ccc(-c2nc(N)nc3c2cnn3CCCCC(=O)NO)o1 | 1830 nM | – | – | 228 nM | –
Cc1ccc(-c2nc(N)nc3c2cnn3Cc2cccc(OCCCCC(=O)NO)n2)o1 | 72 nM | – | – | 573 nM | –
Cc1ccc(-c2nc(N)nc3c2cnn3Cc2cccc(/C=C/C(=O)Nc3ccccc3N)c2)o1 | 25 nM | – | – | 2530 nM | –
Cc1ccc(-c2nc(N)nc3c2cnn3CCCOc2ccc(C(=O)Nc3ccccc3N)cc2)o1 | 107 nM | – | – | 226 nM | –
Cc1ccc(-c2nc(N)nc3c2cnn3Cc2ccc(C(=O)NO)cc2)o1 | 2540 nM | – | – | 14 nM | –
Cc1ccc(-c2nc(N)nc3c2cnn3Cc2ccc(N)c(OCCCCCCC(=O)NO)c2)o1 | 74.3 nM | 19600 nM | 26700 nM | 45 nM | –
Nc1nc(-c2ccco2)c2cnn(Cc3ccc(C(=O)Nc4ccccc4N)cc3)c2n1 | 1720 nM | – | – | 17.5 nM | –
Nc1nc(-c2ccco2)c2cnn(Cc3ccc(/C=C/C(=O)Nc4ccccc4N)cc3)c2n1 | > 10000 nM | – | – | 116 nM | –
Nc1nc(-c2ccco2)c2cnn(Cc3ccc(/C=C/C(=O)NO)cc3)c2n1 | 3590 nM | – | – | 7.1 nM | –
Nc1nc(-c2ccco2)c2cnn(CCOc3ccc(C(=O)NO)cc3)c2n1 | > 10000 nM | – | – | 11.1 nM | –
Cc1ccc(-c2nc(N)nc3c2cnn3CCc2ccc(C(=O)Nc3ccccc3N)cc2)o1 | 125 nM | 9130 nM | 7970 nM | 126 nM | –
Nc1nc(-c2ccco2)c2cnn(Cc3cccc(OCCCCCC(=O)NO)n3)c2n1 | 68.3 nM | – | – | 192 nM | –
Nc1nc(-c2ccco2)c2cnn(Cc3ccc(C(=O)NO)cc3)c2n1 | 863 nM | – | – | 12.8 nM | –
